Laboratory results as given in BindingDB's records for doi:10.1016/j.bmcl.2014.03.015 (Jiangnan University, 2014).

Target: T1, Tyrosine-protein phosphatase non-receptor type 11 (Homo sapiens, UniProt Q06124)
T1 sequence (Q06124 whole entry): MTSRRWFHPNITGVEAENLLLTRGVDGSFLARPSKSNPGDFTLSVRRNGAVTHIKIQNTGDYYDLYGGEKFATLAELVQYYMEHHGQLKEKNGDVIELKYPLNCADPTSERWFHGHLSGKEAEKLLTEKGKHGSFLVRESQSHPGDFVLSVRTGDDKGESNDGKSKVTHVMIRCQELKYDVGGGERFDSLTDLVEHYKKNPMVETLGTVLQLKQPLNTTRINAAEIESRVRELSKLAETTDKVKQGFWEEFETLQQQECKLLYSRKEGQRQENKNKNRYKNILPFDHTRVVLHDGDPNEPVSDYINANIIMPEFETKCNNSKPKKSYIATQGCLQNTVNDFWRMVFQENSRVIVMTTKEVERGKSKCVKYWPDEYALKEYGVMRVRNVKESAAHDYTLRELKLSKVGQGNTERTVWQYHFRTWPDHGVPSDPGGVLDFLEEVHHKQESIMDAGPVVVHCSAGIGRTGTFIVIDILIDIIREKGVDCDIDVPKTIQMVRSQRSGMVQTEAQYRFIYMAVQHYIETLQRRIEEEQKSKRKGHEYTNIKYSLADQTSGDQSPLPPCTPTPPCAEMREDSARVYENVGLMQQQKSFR
Assay: pNPP assay

[O]=[V]([OH])([OH])[OH]
IC50: 34.7 µM

O=C(Nc1ccc(-c2ccc(NC(=O)c3ccc(F)cc3)cn2)cc1)c1ccc(F)cc1 [4-fluoro-N-(6-(4-(4-fluorobenzamido)phenyl)pyridin-3-yl)benzamide (29)]
IC50: 19.7 µM
